In patent publication US9006451B1, “2-anilinonicotinyl based chalcones useful as potential anticancer agents and process for preparation thereof” (Council of Scientific and Industrial Research, priority 2013, dated 2015):

What was measured:
Type in all cases: cell-based
SK-MEL-2 = assay: NCI 60 human tumor cell line screen (SRB): SK-MEL-2; settings: SK-MEL-2, Melanoma, 48 hours, read-out: GI50 values (μM conc.)
Procedure: (§1) The in vitro anticancer activity studies for these chalcone analogues were carried out at the National Cancer Institute, USA.
(§2) The chalcone compounds have been tested at NCI, USA, against sixty human tumor cell lines derived from nine cancer types (leukemia, non-small cell lung cancer, colon cancer, CNS cancer, melanoma cancer, ovarian cancer, renal cancer, prostate cancer and breast cancer). For these compounds results are expressed as growth inhibition (GI50) values as per NCI protocol.
(§3) We describe here the development and implementation of a pilot-scale, in vitro, anticancer drug screen utilizing a panel of 60 human tumor cell lines organized into subpanels representing leukemia, melanoma, and cancers of the lung, colon, kidney, ovary, and central nervous system. The ultimate goal of this disease-oriented screen is to facilitate the discovery of new compounds with potential cell line-specific and/or subpanel-specific antitumor activity. In the current screening protocol, each cell line is inoculated onto microtiter plates, then preincubated for 28 hours. Subsequently, test agents are added in five 10-fold dilutions and the culture is incubated for an additional 48 hours. For each test agent, a dose-response profile is generated. End-point determinations of the cell viability or cell growth are performed by in situ fixation of cells, followed by staining with a protein-binding dye, sulforhodamine B (SRB). The SRB binds to the basic amino acids of cellular macromolecules; the solubilized stain is measured spectrophotometrically to determine relative cell growth or viability in treated and untreated cells.

EKVX = assay: NCI 60 human tumor cell line screen (SRB): EKVX; settings: Non-small cell lung, 48 hours, read-out: GI50 values (μM conc.)
Procedure: as §1, §2, §3

HCC-2998 = assay: NCI 60 human tumor cell line screen (SRB): HCC-2998; settings: HCC-2998, Colon, 48 hours, read-out: GI50 values (μM conc.)
Procedure: as §1, §2, §3

RXF 393 = assay: NCI 60 human tumor cell line screen (SRB): RXF 393; settings: RXF 393, Renal, 48 hours, read-out: GI50 values (μM conc.)
Procedure: as §1, §2, §3

NCI-H522 = assay: NCI 60 human tumor cell line screen (SRB): NCI-H522; settings: NCI-H522, Non-small cell lung, 48 hours, read-out: GI50 values (μM conc.)
Procedure: as §1, §2, §3

MDA-MB-468 = assay: NCI 60 human tumor cell line screen (SRB): MDA-MB-468; settings: MDA-MB-468, Breast, 48 hours, read-out: GI50 values (μM conc.)
Procedure: as §1, §2, §3

SNB-19 = assay: NCI 60 human tumor cell line screen (SRB): SNB-19; settings: SNB-19, CNS, 48 hours, read-out: GI50 values (μM conc.)
Procedure: as §1, §2, §3

ACHN = assay: NCI 60 human tumor cell line screen (SRB): ACHN; settings: Renal, 48 hours, read-out: GI50 values (μM conc.)
Procedure: as §1, §2, §3

MOLT-4 = assay: NCI 60 human tumor cell line screen (SRB): MOLT-4; settings: MOLT-4, Leukemia, 48 hours, read-out: GI50 values (μM conc.)
Procedure: as §1, §2, §3

NCI-H322M = assay: NCI 60 human tumor cell line screen (SRB): NCI-H322M; settings: Non-small cell lung, 48 hours, read-out: GI50 values (μM conc.)
Procedure: as §1, §2, §3

786-0 = assay: NCI 60 human tumor cell line screen (SRB): 786-0; settings: 786-0, Renal, 48 hours, read-out: GI50 values (μM conc.)
Procedure: as §1, §2, §3

HOP-92 = assay: NCI 60 human tumor cell line screen (SRB): HOP-92; settings: HOP-92, Non-small cell lung, 48 hours, read-out: GI50 values (μM conc.)
Procedure: as §1, §2, §3

RPMI-8226 = assay: NCI 60 human tumor cell line screen (SRB): RPMI-8226; settings: RPMI-8226, Leukemia, 48 hours, read-out: GI50 values (μM conc.)
Procedure: as §1, §2, §3

SNB-75 = assay: NCI 60 human tumor cell line screen (SRB): SNB-75; settings: SNB-75, CNS, 48 hours, read-out: GI50 values (μM conc.)
Procedure: as §1, §2, §3

SN12C = assay: NCI 60 human tumor cell line screen (SRB): SN12C; settings: Renal, 48 hours, read-out: GI50 values (μM conc.)
Procedure: as §1, §2, §3

NCI-H460 = assay: NCI 60 human tumor cell line screen (SRB): NCI-H460; settings: NCI-H460, Non-small cell lung, 48 hours, read-out: GI50 values (μM conc.)
Procedure: as §1, §2, §3

BT-549 = assay: NCI 60 human tumor cell line screen (SRB): BT-549; settings: BT-549, Breast, 48 hours, read-out: GI50 values (μM conc.)
Procedure: as §1, §2, §3

HCT-116 = assay: NCI 60 human tumor cell line screen (SRB): HCT-116; settings: HCT-116, Colon, 48 hours, read-out: GI50 values (μM conc.)
Procedure: as §1, §2, §3

NCI/ADR-RES = assay: NCI 60 human tumor cell line screen (SRB): NCI/ADR-RES; settings: Ovarian, 48 hours, read-out: GI50 values (μM conc.)
Procedure: as §1, §2, §3

HT29 = assay: NCI 60 human tumor cell line screen (SRB): HT29; settings: HT-29, HT29, Colon, 48 hours, read-out: GI50 values (μM conc.)
Procedure: as §1, §2, §3

HOP-62 = assay: NCI 60 human tumor cell line screen (SRB): HOP-62; settings: HOP-62, Non-small cell lung, 48 hours, read-out: GI50 values (μM conc.)
Procedure: as §1, §2, §3

LOX IMVI = assay: NCI 60 human tumor cell line screen (SRB): LOX IMVI; settings: Melanoma, 48 hours, read-out: GI50 values (μM conc.)
Procedure: as §1, §2, §3

NCI-H226 = assay: NCI 60 human tumor cell line screen (SRB): NCI-H226; settings: NCI-H226, Non-small cell lung, 48 hours, read-out: GI50 values (μM conc.)
Procedure: as §1, §2, §3

SK-MEL-5 = assay: NCI 60 human tumor cell line screen (SRB): SK-MEL-5; settings: SK-MEL-5, Melanoma, 48 hours, read-out: GI50 values (μM conc.)
Procedure: as §1, §2, §3

SK-MEL-28 = assay: NCI 60 human tumor cell line screen (SRB): SK-MEL-28; settings: SK-MEL-28, Melanoma, 48 hours, read-out: GI50 values (μM conc.)
Procedure: as §1, §2, §3

SF-539 = assay: NCI 60 human tumor cell line screen (SRB): SF-539; settings: SF-539, CNS, 48 hours, read-out: GI50 values (μM conc.)
Procedure: as §1, §2, §3

T-47D = assay: NCI 60 human tumor cell line screen (SRB): T-47D; settings: T47D, Breast, 48 hours, read-out: GI50 values (μM conc.)
Procedure: as §1, §2, §3

HL-60(TB) = assay: NCI 60 human tumor cell line screen (SRB): HL-60(TB); settings: Leukemia, 48 hours, read-out: GI50 values (μM conc.)
Procedure: as §1, §2, §3

A549/ATCC = assay: NCI 60 human tumor cell line screen (SRB): A549/ATCC; settings: Non-small cell lung, 48 hours, read-out: GI50 values (μM conc.)
Procedure: as §1, §2, §3

TK-10 = assay: NCI 60 human tumor cell line screen (SRB): TK-10; settings: TK-10, Renal, 48 hours, read-out: GI50 values (μM conc.)
Procedure: as §1, §2, §3

SMILES | GI50 (SK-MEL-2) [µM] | GI50 (EKVX) [µM] | GI50 (HCC-2998) [µM] | GI50 (RXF 393) [µM] | GI50 (NCI-H522) [µM] | GI50 (MDA-MB-468) [µM] | GI50 (SNB-19) [µM] | GI50 (ACHN) [µM] | GI50 (MOLT-4) [µM] | GI50 (NCI-H322M) [µM] | GI50 (786-0) [µM] | GI50 (HOP-92) [µM] | GI50 (RPMI-8226) [µM] | GI50 (SNB-75) [µM] | GI50 (SN12C) [µM] | GI50 (NCI-H460) [µM] | GI50 (BT-549) [µM] | GI50 (HCT-116) [µM] | GI50 (NCI/ADR-RES) [µM] | GI50 (HT29) [µM] | other results
COc1ccc(Nc2ncccc2/C=C/C(=O)c2cc(OC)c(OC)c(OC)c2)cc1 [6h, (E)-3-(2-(4-Methoxyphenylamino)pyridin-3-yl)-1-(3,4,5-trimethoxyphenyl)prop-2-en-1-one] | 1.47 | 1.8 | 1.68 | 1.49 | 0.36 | 1.15 | 2.14 | 1.55 | 2.09 | 2.13 | 1.69 | 1.59 | 1.08 | 1.15 | 1.56 | 2.01 | 1.58 | 1.02 | 2.23 | 1.6 | GI50 (HOP-62): 1.78 µM; GI50 (LOX IMVI): 1.23 µM; GI50 (NCI-H226): 1.37 µM; GI50 (SK-MEL-5): 1.39 µM; GI50 (SK-MEL-28): 1.37 µM; GI50 (SF-539): 2.04 µM; GI50 (T-47D): 1.67 µM
COc1cc(C(=O)/C=C/c2cccnc2Nc2ccc(Cl)cc2)cc(OC)c1OC [6ax, (E)-3-(2-(4-Chlorophenylamino)pyridin-3-yl)-1-(3,4,5-trimethoxyphenyl)prop-2-en-1-one] | 2.01 | 1.61 | 1.52 | 1.26 | 1.46 | 1.29 | 1.52 | 1.77 | 2.55 | 1.95 | 1.46 | 0.51 | 0.65 | 1.63 | 1.46 | 1.92 | 1.5 | 0.56 | 1.64 | 1.43 | GI50 (HL-60(TB)): 1.59 µM; GI50 (A549/ATCC): 1.63 µM; GI50 (TK-10): 1.87 µM; GI50 (HOP-62): 1.65 µM; GI50 (LOX IMVI): 1.27 µM; GI50 (NCI-H226): 1.16 µM; GI50 (SK-MEL-5): 1.5 µM; GI50 (SK-MEL-28): 1.72 µM; GI50 (SF-539): 1.71 µM; GI50 (T-47D): 1.42 µM
COc1cc(/C=C/C(=O)c2cccnc2Nc2ccc(F)cc2)cc(OC)c1OC [7f, (E)-1-(2-(4-Fluorophenylamino)pyridin-3-yl)-3-(3,4,5-trimethoxyphenyl)prop-2-en-1-one] | 2.52 | 3.94 | 1.78 | 2.81 | 2.69 | 1.77 | 3.73 | 2.84 | 2.75 | 4.83 | 3.9 | 1.67 | 2.43 | 1.93 | 3.23 | 2.83 | 2.7 | 1.54 | 2.37 | 2.75 | GI50 (HL-60(TB)): 2.4 µM; GI50 (A549/ATCC): 2.66 µM; GI50 (TK-10): 3.52 µM; GI50 (HOP-62): 2.9 µM; GI50 (LOX IMVI): 1.69 µM; GI50 (NCI-H226): 1.79 µM; GI50 (SK-MEL-5): 2.51 µM; GI50 (SK-MEL-28): 3.22 µM; GI50 (SF-539): 2.85 µM; GI50 (T-47D): 3.06 µM
COc1cc(Nc2ncccc2/C=C/C(=O)c2cc(OC)c(OC)c(OC)c2)cc(OC)c1OC [6v, (E)-1-(3,4,5-Trimethoxyphenyl)-3-(2-(3,4,5-trimethoxyphenylamino)pyridin-3-yl)prop-2-en-1-one] | 8 | 7.55 | 7.74 | 5.22 | 7.44 | 6.78 | 6.8 | 5.34 | 6.72 | 21.1 | 5.98 | 0.94 | 6.83 | 4.12 | 5.1 | 3.61 | 14.3 | 3.77 | 4.44 | 5.51 | GI50 (HL-60(TB)): 8 µM; GI50 (A549/ATCC): 4.21 µM; GI50 (TK-10): 1.55 µM; GI50 (HOP-62): 12.1 µM; GI50 (LOX IMVI): 4.51 µM; GI50 (NCI-H226): 10.8 µM; GI50 (SK-MEL-5): 4.17 µM; GI50 (SK-MEL-28): 5.43 µM; GI50 (SF-539): 12.2 µM; GI50 (T-47D): 5.3 µM
COc1ccc(C(=O)/C=C/c2cccnc2Nc2cc(OC)c(OC)c(OC)c2)cc1 [6z, (E)-1-(4-Methoxyphenyl)-3-(2-(3,4,5-trimethoxyphenylamino)pyridin-3-yl)prop-2-en-1-one] | 7.04 | 10.8 | 1.42 | 1.68 | 1.33 | 0.77 | 2.87 | 1.7 | 2.26 | 7.38 | 1.31 | 2.4 | 0.85 | 2.44 | 1.91 | 2.16 | 2.41 | 0.53 | 1.38 | 0.37 | GI50 (HL-60(TB)): 1.27 µM; GI50 (A549/ATCC): 2.15 µM; GI50 (TK-10): 2.06 µM; GI50 (HOP-62): 2.18 µM; GI50 (LOX IMVI): 1.12 µM; GI50 (NCI-H226): 1.73 µM; GI50 (SK-MEL-5): 2.41 µM; GI50 (SK-MEL-28): 3.72 µM; GI50 (SF-539): 1.81 µM; GI50 (T-47D): 2.04 µM
COc1cc(C(=O)/C=C/c2cccnc2Nc2ccccc2)cc(OC)c1OC [6a, (E)-3-(2-(Phenylamino)pyridin-3-yl)-1-(3,4,5-trimethoxyphenyl)prop-2-en-1-one] | 1.66 | 1.61 | 1.18 | 1.12 | 0.49 | 0.66 | 1.48 | 1.28 | 2.68 | 1.9 | 1.29 | 0.39 | 0.35 | 1.13 | 1.21 | 1.8 | 1.26 | 0.33 | 1.03 | 0.51 | GI50 (HL-60(TB)): 1.52 µM; GI50 (A549/ATCC): 1.3 µM; GI50 (TK-10): 1.82 µM; GI50 (HOP-62): 0.65 µM; GI50 (LOX IMVI): 0.49 µM; GI50 (NCI-H226): 1.23 µM; GI50 (SK-MEL-5): 1.34 µM; GI50 (SK-MEL-28): 1.58 µM; GI50 (SF-539): 1.65 µM; GI50 (T-47D): 1.43 µM
